Laboratory results taken from paper PMC2635417 (The Journal of endocrinology, 2008).
Entries after “also recorded” stand apart in the source; their conditions may differ. Like-named read-outs stand apart in the source and are kept apart here. No end group written: not given here.

How the values were obtained:
[1] = tested on: CRH receptors (CRH-R1 and CRH-R2) in αT3-1 cells; format: cell-based, murine; conditions: 1 mM IBMX, p<0.05; for inhibition of CRH-mediated cAMP increase: 10 μM α-helical CRH 9–41 or 1 μM astressin with 100 nM CRH, 3 min; for inhibition of UCN1-mediated cAMP increase: 10 μM α-helical CRH 9–41 or 1 μM astressin with 100 nM UCN1, 3 min
[2] = tested on: αT3-1 cells; conditions: cited from earlier work
[3] = tested on: αT3-1 cells; assay: Total inositol phosphate levels; format: cell-based, murine; conditions: treatment alone; preliminary studies, unpublished data, A. Seasholtz
[4] = tested on: PACAP receptor in LβT2 gonadotrope like cell line; conditions: LβT2 cells; ref Lariviere, et al. 2008; cited from earlier work
[5] = tested on: α-subunit in αT3-1 cells; conditions: ref Attardi and Winters 1998, Burrin, et al. 1998, Schomerus, et al. 1994, Tsujii, et al. 1995; cited from earlier work
[6] = tested on: CRH-R2 in αT3-1 cells; assay: Antisauvagine; format: cell-based, murine; conditions: 1 μM antisauvagine, 15 min pretreatment; for effect of antisauvagine alone on cAMP: versus vehicle

Substance: astressin
- inhibition of CRH-mediated cAMP increase [1]: completely blocked; also recorded: complete suppression; also recorded: completely inhibited; also recorded: significant repressions
- inhibition of UCN1-mediated cAMP increase [1]: completely blocked; also recorded: complete suppression; also recorded: completely inhibited; also recorded: significant repressions

Substance: alpha-helical CRH (9–41) [α-helical CRH 9–41]
- inhibition of CRH-mediated cAMP increase [1]: reduced cAMP values to vehicle-treated levels
- inhibition of CRH-mediated cAMP increase ([1]; listed as α-helical CRH 9-41): completely blocked; also recorded: completely inhibited
- inhibition of UCN1-mediated cAMP increase [1]: reduced cAMP values to vehicle-treated levels
- inhibition of UCN1-mediated cAMP increase ([1]; listed as α-helical CRH 9-41): completely blocked; also recorded: completely inhibited

Substance: gonadotropin- releasing hormone (QHWSYGLRPG; Gonadoliberin-1; UniProt P01148 24-33, looked up) [GnRH]
- effect on cAMP levels ([2]; alone, ref McArdle and Counis 1996, McArdle, et al. 1994): does not alter cAMP levels
- effect on total inositol phosphate levels [3]: dramatically increases total inositol phosphate levels
- PACAP receptor phosphorylation by PKC [4]: stimulating PACAP receptor phosphorylation by PKC

Substance: pituitary adenylyl cyclase activating polypeptide (HSDGIFTDSYSRYRKQMAVKKYLAAVLGKRYKQRVKNK-NH2; ends and bridges not checked; UniProt P18509 132-169, looked up) [PACAP]
- effect on cAMP levels ([2]; ref Attardi and Winters 1998, Burrin, et al. 1998, Schomerus, et al. 1994, Tsujii, et al. 1995): increase intracellular cAMP levels
- α-subunit transcriptional activity / mRNA / expression [5]: increased transcriptional activity and steady state levels of α-subunit mRNA; also recorded: increased α-subunit expression

Substance: antisauvagine
- repression of UCN1-mediated cAMP increase ([6]; then 100 nM UCN1 3 min, partial block): 75%
- inhibition of UCN3-mediated cAMP increase ([6]; then 100 nM UCN3 3 min, p<0.05): completely blocked
- effect of antisauvagine alone on cAMP [6]: did not significantly differ from vehicle
- effect of antisauvagine alone on cAMP ([6]; listed as AS): no significant difference
